According to US7763596B2, “Selective glucocorticoid receptor agonists” (The University of Manchester, priority 2000, dated 2010):

Experiments:
GFP tagged GR = target: T1, GFP tagged GR (Homo sapiens, UniProt P04150); assay: Nuclear translocation using GFP tagged GR and fluorescent microscopy; type: cell-based; conditions: COS 7 cells, 100 nM, 3 hours
T1 construct: expressed in transfected cells; host or cells: COS 7
T1 sequence (P04150 1-777): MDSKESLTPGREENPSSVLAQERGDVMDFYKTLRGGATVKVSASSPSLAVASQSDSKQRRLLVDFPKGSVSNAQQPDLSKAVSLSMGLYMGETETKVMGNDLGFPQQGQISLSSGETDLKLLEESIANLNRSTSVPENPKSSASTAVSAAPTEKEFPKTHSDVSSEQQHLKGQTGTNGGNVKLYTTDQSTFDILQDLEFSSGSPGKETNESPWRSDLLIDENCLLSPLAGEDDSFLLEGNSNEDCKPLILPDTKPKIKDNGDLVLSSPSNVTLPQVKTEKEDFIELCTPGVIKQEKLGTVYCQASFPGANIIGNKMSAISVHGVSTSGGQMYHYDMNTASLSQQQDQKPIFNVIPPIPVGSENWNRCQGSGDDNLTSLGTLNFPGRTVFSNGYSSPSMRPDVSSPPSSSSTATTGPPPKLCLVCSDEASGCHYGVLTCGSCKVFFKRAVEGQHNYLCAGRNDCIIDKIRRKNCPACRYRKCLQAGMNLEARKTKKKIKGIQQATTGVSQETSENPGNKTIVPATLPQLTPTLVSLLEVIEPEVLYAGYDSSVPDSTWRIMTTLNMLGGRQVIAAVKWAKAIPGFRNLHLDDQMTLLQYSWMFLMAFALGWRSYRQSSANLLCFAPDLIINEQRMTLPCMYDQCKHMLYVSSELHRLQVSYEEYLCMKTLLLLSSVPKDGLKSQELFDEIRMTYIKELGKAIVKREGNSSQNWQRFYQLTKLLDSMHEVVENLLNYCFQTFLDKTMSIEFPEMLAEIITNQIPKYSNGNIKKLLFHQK
From the text: The un-liganded GR is present in the cytoplasm of cells in association with heat shock proteins (HSPs). The binding of an agonist ligand to the GR causes dissociation from the HSPs and translocation to the nucleus. A type I antagonist ligand can bind to the GR but cannot translocate to the nucleus. A type II antagonist ligand can bind to the GR, translocate to the nucleus and bind to DNA but cannot activate gene transcription. Therefore, the ability of a putative ligand to translocate the GR helps to determine its status as an agonist or antagonist. COS 7 cells were transfected with 5 μg of a green fluorescent protein (GFP) tagged GR expression vector. After transfection, these cells were split into 6 well plates with sterile microscope cover slips placed at the bottom of each well. The cells were allowed to recover for 18 hours and then the medium was removed, the cells were washed three times with sterile phosphate buffered saline (PBS) and new medium was added containing charcoal stripped FCS in place of normal FCS. The cells were incubated for 18 hours and then the steroids of FIGS. 1 and 2A were added to make a final concentration of 100 nM. The cells were incubated for a further 3 hours and then the medium was aspirated and the cells were fixed to the glass coverslips by adding ice cold methanol and incubating at −20° C. for 30 mins. The coverslips with the transfected cells fixed to them were mounted on slides and the cellular localisation of the GFP tagged GR was analysed by fluorescent microscopy using an Axioplan 2 microscope (Zeiss, Oberkochen, Germany) and KS300 v3.0 analysis software (Zeiss).

[1] = target: T2, GR ligand binding domain / SRC-1 (Homo sapiens, UniProt P04150); assay: SRC-1 association assay by mammalian two-hybrid analysis; type: cell-based; conditions: for SRC-1 recruitment at the highest concentration tested: 100 nM
T2 construct: expressed in transfected cells
T2 sequence (P04150 524-758 limits assumed): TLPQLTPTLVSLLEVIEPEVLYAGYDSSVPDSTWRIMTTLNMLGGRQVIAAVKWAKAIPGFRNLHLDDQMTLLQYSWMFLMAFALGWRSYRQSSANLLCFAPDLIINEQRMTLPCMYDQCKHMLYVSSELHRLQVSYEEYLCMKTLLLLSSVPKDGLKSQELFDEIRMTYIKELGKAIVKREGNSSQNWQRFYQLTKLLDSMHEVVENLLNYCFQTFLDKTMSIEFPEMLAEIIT
From the text: SRC-1 is an important co-activator of GR action that associates with the GR in a ligand dependant manner. The ability of SRC-1 to associate with the GR in this manner can be used as a measure of potency of ligand mediated transactivation. To perform this assay plasmids that generated VP16-GR ligand binding domain (LBD) and GAL4-SRC-1 fusion proteins and a GAL4 binding luciferase reporter gene construct were transfected into in a cell line lacking GR and deficient in endogenous SRC-1. The GAL4-SRC-1 fusion protein could bind to specific sites upstream of the luciferase reporter gene construct. If the SRC-1 fusion protein associated with the ligand bound VP16-GRLBD fusion protein then the VP-16 activation domain augmented the luciferase gene expression.

endogenous GR = target: T3, endogenous GR (Homo sapiens, UniProt P04150); assay: Transrepression assay using endogenous GR in the A549 lung epithelial cell line (TNF, NRE luciferase); type: cell-based; conditions: compound G at 1, 10, 100 and 500 nM
T3 construct: This cell line contains functional endogenous GR; endogenous in cells; host or cells: A549
T3 sequence (P04150 1-777): T1 sequence (P04150 1-777)
From the text: The A549 cell line (ECACC:86012804) is derived from the human lung epithelial cells from a carcinoma. This cell line contains functional endogenous GR and is stimulated by Tumour Necrosis Factor (TNF) to produce IL-8.
In this assay TNF was used to stimulate NFkB activity in a cell line that expressed endogenous GR. The ability of NFkB to activate an NRE “driving” a luciferase reporter gene could then be repressed by GR in a ligand dependent manner and, therefore, used to measure transrepression.
COS7 cells were transfected with 3 μg NRE-Luc per 10 cm tissue culture dish. The cells were plated out in to 24 well plates after transfection and left for 18 hours to recover before the steroids of FIGS. 1 and 2 were added. Next TNF was added to the samples after 3 hours incubation with the steroids and after another 15 hours the cells were lysed and a luciferase assay was performed.

glucocorticoid receptor = target: T4, glucocorticoid receptor (Homo sapiens, UniProt P04150); assay: Type II antagonist activity assay: competition of dexamethasone transactivation; type: cell-based; parameters: expressed in transfected cells; host or cells: COS 7 (African green monkey kidney, deficient in endogenous GR); conditions: COS7 cells stimulated with 1 nM dexamethasone
T4 sequence (P04150 1-777): T1 sequence (P04150 1-777)
Method: A type II antagonist should be able to compete agonist activity. As an antagonist has no ability to transactivate, competition can be measured by inhibition of an agonist in a transactivation assay.
As with the standard transactivation assay previously described, the GR was artificially expressed in a cell line lacking endogenous GR and a GRE “driving” a luciferase reporter gene was used to measure ligand dependent activation. COS7 cells were transfected with 1 μg pcDNA3-GR and 3 μg AH3-Luc per 10 cm tissue culture dish. The cells were plated out in to 24 well plates after transfection and the steroids were added immediately. […] Certain steroids from FIG. 2A were added at the same concentration to all sample wells. After 18 hour incubation the cells were lysed and a luciferase assay was performed.

[2] = system: other members of the steroid receptor super family; assay: Binding to other members of the steroid receptor super family

Compound | nuclear translocation of the GFP tagged glucocorticoid receptor (GFP tagged GR) | repression of TNF activation of A549 cells (NRE reporter gene) (endogenous GR) | competition of dexamethasone transactivation (glucocorticoid receptor) | SRC-1 recruitment at the highest concentration tested [1] | other results
CC1CC2C3CCC4=CC(=O)C=CC4(C)C3(F)C(O)CC2(C)C1(O)C(=O)COC(=O)c1ccc(F)cc1 (centres unmarked) [Compound D] | caused nuclear localisation | exhibited transrepression |  |  | SRC-1 recruitment compared with dexamethasone ([1]; 1, 10 and 100 nM): recruited SRC-1 to the same extent as dexamethasone
CC1CC2C3CCC4=CC(=O)C=CC4(C)C3(F)C(O)CC2(C)C1(O)C(=O)NCCC(=O)O (centres unmarked) [Q] |  |  | failed to repress dexamethasone transactivation |  | 
Cc1ccc(NC(=O)C2(O)C(C)CC3C4CCC5=CC(=O)C=CC5(C)C4(F)C(O)CC32C)cc1 (centres unmarked) [Compound O] | failed to cause translocation |  | failed to repress dexamethasone transactivation |  | 
CC1CC2C3CCC4=CC(=O)C=CC4(C)C3(F)C(O)CC2(C)C1(O)C(=O)NCCCO (centres unmarked) [L] |  |  | failed to repress dexamethasone transactivation |  | 
CCCNC(=O)C1(O)C(C)CC2C3CCC4=CC(=O)C=CC4(C)C3(F)C(O)CC21C (centres unmarked) [Compound G] |  | repressed at least as well as dexamethasone and also had a “left shifted” response with greater maximal repression |  | no SRC-1 recruitment | transactivation as measured by SRC-1 recruitment ([1]; 1 and 10 nmolar): no transactivation as measured by SRC-1 recruitment; binding to other members of the steroid receptor super family [2]: not to bind to other members of the steroid receptor super family
CCCCCCNC(=O)OCC(=O)C1(O)C(C)CC2C3CCC4=CC(=O)C=CC4(C)C3(F)C(O)CC21C (centres unmarked) [Compound T] |  |  |  | significant response | 
CC1CC2C3CCC4=CC(=O)C=CC4(C)C3(F)C(O)CC2(C)C12OC(C)(C)OCC2=O (centres unmarked) [Compound A] | caused nuclear localisation | exhibited transrepression |  |  | SRC-1 recruitment, sub-maximal response ([1]; 1, 10 and 100 nM, relative to dexamethasone): ~50%
CCCOC(=O)C1(O)C(C)CC2C3CCC4=CC(=O)C=CC4(C)C3(F)C(O)CC21C (centres unmarked) [R] |  |  | failed to repress dexamethasone transactivation | significant response | 
